Data: patent publication US9199927B2, “Guanidinobenzoic acid compound” (Astellas Pharma Inc., priority 2011, dated 2015)
Where a name gives a salt, the structure may show the parent alone.

How the values were obtained:
[1] = target: human recombinant trypsin (r-h trypsin) (Homo sapiens (Human), UniProt P07477); assay: Inhibitory activity of trypsin enzyme (human recombinant trypsin, BZiPAR fluorescent substrate); assay type: biochemical; settings: human recombinant trypsin 0.088 μg/mL, 30 minutes at room temperature
Method: (§1) 1. Inhibitory Activity of Trypsin Enzyme in Humans and Mice
(§2) In the experiment, human recombinant trypsin (r-h trypsin; manufactured by WAKO, cat. #206-17171) and mouse trypsin (m-trypsin; purified from the mouse small intestine contents by the present Company) were used.
(§3) The outline of the measurement method is shown below.
(§4) The compound was dissolved in dimethyl sulfoxide (DMSO), and diluted to an arbitrary concentration (A). A was 100-fold diluted with a buffer (0.1 M Tris (pH 8.0), 0.15 M NaCl, 10 mM CaCl2, 0.05% Brij38) (B). The r-h trypsin was diluted with a buffer to 0.088 μg/mL, and the m-trypsin was diluted with a buffer to 1/50 (C). […] The substrate solution of a substrate for the enzyme reaction, BZiPAR, (Rhodamine Reference Substrate) was diluted with a buffer to 5 μmol/L (D). B; 5 μL, C; 5 μL, and D; 10 μL were added to a 384-plate, and incubated at room temperature for 30 minutes. The fluorescent signals were detected with Ex/Em=497/520 using Tecan Safire Fluorometer. […] Based on the obtained inhibitory rates, IC50 values (nM) were calculated from the non-linear regression. The test was carried out in the same manner, using camostat as a control compound.
(§5) Ex in the table represents the Example No. as denoted below.

[2] = target: mouse trypsin (m-trypsin); assay: Inhibitory activity of trypsin enzyme (mouse trypsin purified from small intestine contents, BZiPAR fluorescent substrate); assay type: biochemical; settings: mouse trypsin diluted 1/50, BZiPAR substrate, 30 minutes at room temperature
From the text: as §1, §2
The method to extract the trypsin from the mouse small intestine is shown below.
The small intestine contents and the gastrointestinal tract of 10 mice were suspended in PBS using Polytron and subjected to centrifugation at 15,000×g several times. The supernatant was mixed at 4° C. for 16 hours with a Benzamidine Sepharose 4 Fast Flow Resin (GE Healthcare: #17-5123-10). After washing the resin with PBS, m-trypsin was eluted with a glycine elution buffer (pH 3.0).
as §3, §4, §5

[3] = system: ICR mice; assay: Increasing study of fecal protein concentration in mice; assay type: in vivo; settings: Mus musculus, 5 mg/kg oral, feces collected 3 to 9 hours after, control = 1, read-out: protein increasing activity in feces, fold vs control
Method: 2. Increasing Study of Fecal Protein Concentration in Mice
For the experiment, 6-weeks old ICR mice (male) were used, and the experiment was carried out in five per group. After fasting the mice for 15 hours, the control group was forcibly orally administered with a 0.5% methyl cellulose (MC) solution, and the test drug group was forcibly orally administered (5 mg/kg) with a solution or suspension obtained by dissolving or suspending the compound in the 0.5% MC solution. The fasting was stopped immediately thereafter, free feeding (CE-2) started and then the feces were collected from after 3 hours to after 9 hours. All of the obtained feces were dissolved and suspended in 6 mL of distilled water, and centrifuged for 10 minutes at 3000 rpm. The protein concentration in the supernatant was measured by a Bradford method, and the amount of the protein in 1 g of feces was calculated by dividing the protein concentration in the feces by the total weight of feces. Further, the efficacy was investigated from the ratio to the control. For the compounds that were evaluated multiple times, the average values were calculated.
For some representative compounds, the protein increasing activities in feces are shown in Table 2, assuming a value for the control as 1. Ex in the table represents the Example No. as denoted below of the test compound.

Structure (SMILES)	melting point [°C]	IC50 [1] [nM]	IC50 [2] [nM]	response vs control in vivo at 5 mg/kg [3] [%]
N=C(N)Nc1ccc(C(=O)Oc2ccc3nc(C(=O)N(CC(=O)O)Cc4cccc(C(=O)O)c4)ccc3c2)cc1 [Example 4, 3-{[({6-[(4-carbamimidamidobenzoyl)oxy]quinolin-2-yl}carbonyl)(carboxymethyl)amino]methyl}benzoic acid]	255			
N=C(N)Nc1ccc(C(=O)Oc2ccc3nc(C(=O)N(CC(=O)O)Cc4csc(C(=O)O)c4)ccc3c2)cc1 [Example 80]		0.21	0.3	189
CC(C)(Oc1ccc(C[C@H](NC(=O)CCc2ccc(OC(=O)c3ccc(NC(=N)N)cc3)cc2Cl)C(=O)O)cc1)C(=O)O [Example 96]		0.22	0.46	202
C[C@H](C(=O)O)N(Cc1csc(C(=O)O)c1)C(=O)c1ccc2cc(OC(=O)c3ccc(NC(=N)N)cc3)ccc2n1 [Example 102]		0.29	0.3	231
N=C(N)Nc1ccc(C(=O)Oc2ccc(CCC(=O)N(CC(=O)O)Cc3ccccc3C(=O)O)c(Cl)c2)cc1 [Example 53]		0.45	0.35	179
CN(C(=O)N(CC(=O)O)Cc1csc(C(=O)O)c1)c1ccc(OC(=O)c2ccc(NC(=N)N)cc2)cc1Cl [Example 111]		0.54	0.44	201

Continued, in another order:

melting point [°C]	IC50 [1] [nM]	IC50 [2] [nM]	Structure (SMILES)	response vs control in vivo at 5 mg/kg [3] [%]
197			N=C(N)Nc1ccc(C(=O)Oc2ccc(CCC(=O)N(CC(=O)O)Cc3cccc(C(=O)O)c3)c(Cl)c2)cc1 (as salt: mesylate) [Example 3, 3-{[(3-{4-[(4-carbamimidamidobenzoyl)oxy]-2-chlorophenyl}propanoyl)(carboxymethyl)amino]methyl}benzoic acid mesylate]	
208			CC(C(=O)N(CC(=O)O)Cc1cccc(C(=O)O)c1)c1ccc(OC(=O)c2ccc(NC(=N)N)cc2)cc1Cl (stereo not drawn) [Example 5, 3-{[(2-{4-[(4-carbamimidamidobenzoyl)oxy]-2-chlorophenyl}propanoyl)(carboxymethyl)amino]methyl}benzoic acid]	
	0.43	0.38	N=C(N)Nc1ccc(C(=O)Oc2ccc(CCC(=O)N(CC(=O)O)Cc3cccc(C(=O)O)c3)c(Cl)c2)cc1 [Example 36]	192
	0.27	0.31	N=C(N)Nc1ccc(C(=O)Oc2ccc3nc(C(=O)N(CC(=O)O)Cc4cccc(C(=O)O)c4)ccc3c2)cc1 [Example 59]	217
